A short description of experiment [1]: Inhibition of Salmonella enterica HPPK incubated for 20 mins in presence of ATP by Kinase Glo luminescence assay. (In Kinase-Glo more light means more ATP remaining.)
Experiment [2] deals with Salmonella enterica. The experiment is described as follows: Inhibition of Salmonella enterica HPPK at 50 uM incubated for 20 mins in presence of ATP by Kinase Glo luminescence assay.
Experiment [3] has as its system Escherichia coli. The experiment is described as follows: Inhibition of Escherichia coli HPPK at 50 uM incubated for 20 mins in presence of ATP by Kinase Glo luminescence assay.
Experiment [4] in a line: Inhibition of Escherichia coli HPPK.
Experiment [5] can be described thus: Binding affinity to Escherichia coli HPPK.
Experiment [6] in a line: Inhibition of Salmonella enterica HPPK.
A short description of experiment [7]: Binding affinity to Salmonella enterica HPPK.

The source made the active and inactive calls. The rule behind the calls is not given here.

As usually defined, the IC50 is the concentration needed to halve the response being measured. As to `O=C(NCc1n[nH]c(=O)c2ccccc12)c1cccc(Cl)c1`, the IC50 in experiment [1] amounted to 10.4 µM. Further, the “inhibition activity call (active/inactive)” value in experiment [2] is “Active”. On to `O=C1CC(C(=O)Nc2cccc3ccccc23)C2(CCCCC2)O1` (stereo not given), for which, in experiment [3], the inhibition result is “Active”. Further, in experiment [2], the “inhibition activity call (active/inactive)” value was “Active”. On to `O=C(c1ccccc1F)N1CCN(c2ccc([N+](=O)[O-])c3ncccc23)CC1`, for which the “inhibition activity call (active/inactive)” value in experiment [2] is “Active”. Turning to `Cc1cccc(NC(=O)CN2C(=O)N/C(=C\c3cccn3-c3ccccc3)C2=O)c1`, the “inhibition activity call (active/inactive)” value in experiment [2] is “Active”. As usually defined, the Kd is the equilibrium constant for the complex coming apart. Low readings indicate tighter binding, high ones weaker binding. `CC1(C)Nc2nc(N)[nH]c(=O)c2N=C1C(=O)NCCN1CC[C@@H](SC[C@H]2O[C@@H](n3cnc4c(N)ncnc43)[C@H](O)[C@@H]2O)C[C@@H]1C(=O)O` registered an IC50 in experiment [4] of 0.38 µM. In experiment [5], this molecule registered a Kd of 0.19 µM.

In turn, `CC1(C)Nc2nc(N)[nH]c(=O)c2N=C1C(=O)NCCN1CCC(SC[C@H]2O[C@@H](n3cnc4c(N)ncnc43)[C@H](O)[C@@H]2O)CC1` registered an IC50 in experiment [4] of 3.2 µM. In experiment [5], the Kd turned out to be 2.5 µM.

In experiment [6], `Nc1nc2[nH]c(SCc3ccccc3F)nc2c(=O)[nH]1` came in with an IC50 of 25 µM. In addition, the Kd in experiment [7] was determined as 0.45 µM. Consider `CCOC(=O)N1CCN(S(=O)(=O)c2ccc3c4c(cccc24)C(=O)N3)CC1`, for which the “inhibition activity call (active/inactive)” value in experiment [2] was “Active”. As for `Cc1ccc2c(C)c(C(=O)NCc3ccc(S(N)(=O)=O)cc3)oc2c1`, the inhibition entry in experiment [3] was “Active”. In addition, the “inhibition activity call (active/inactive)” value in experiment [2] is “Active”.

The values above are taken from ChEMBL document CHEMBL5136971, “Virtual screening and in vitro validation identifies the first reported inhibitors of Salmonella enterica HPPK” (RSC Med Chem, 2021).
